Format in all cases: cell-based, mouse
Test [1] deals with differentiating TH17 cells. The experiment in a line: TH17 differentiation of CD4 naïve T cells (IL17F-RFP/FOXP3-GFP reporter or intracellular staining of IL-17 and FOXP3). The conditions noted are these: compound added after 24 hours of TH17 differentiation, analyzed on day 6. The method, then:
(§1) CD4 naïve T cells (CD4+CD25-CD62^highCD44^low) were obtained from interleukin (IL)-17F-red fluorescent protein (RFP)/FOXP3-green fluorescent protein (GFP) mice, which were characterized previously, or wild-type C57/BL6 mice, by cell sorting. 0.4 million cells were plated into 48 wells coated with anti-mouse CD3 (clone 145-2C11, eBioscience) […] and anti-mouse CD28 (clone 37.51, eBioscience) (1 μg/ml). The differentiation media for these naïve T cells was as follows: 0.5 ng/ml (or indicated) transforming growth factor (TGF) β, 200 U/ml mouse IL-2, 2 μg/ml anti-interferon (IFN) γ and 2 μg/ml anti-mouse IL4 for differentiation into iTreg cells; and 2.5 ng/ml TGFβ, 10 ng/ml mouse IL-1β, 10 ng/ml mouse IL-6, 10 ng/ml mouse IL-23, 2 μg/ml anti-mouse IFNγ, and anti-mouse IL-4 for differentiating into TH17 cells. The cells were supplemented with new medium at day 4. In cases in which small-molecule compounds were present, the fresh medium containing the same concentration of compounds was used. When necessary, the individual metabolite was added into the T-cell culture 6 hours later after initial cell plating. On day 6, the cells were analyzed for IL17F-RFP and FOXP3-GFP or the cells were collected and restimulated for 4-6 hours with PMA, inomycin, and Golgi-stop for intracellular staining in absence of indicated compounds.
To identify small molecules that regulate cell-fate switching of TH17/iTreg cells and to further understand the regulation of the TH17/iTreg balance, 10,000 individual small molecules were phenotypically screened using CD4 naïve T cells from IL-17F-RFP/FOXP3-GFP mice. The naïve T cells were cultured under optimal TH17 differentiation conditions and compounds that could reprogram TH17 differentiation toward iTreg cell fate were identified using the reporter readout. Briefly, after TH17 differentiation for 24 hours, compounds were added to TH17 culture, and the treatment was continued for an additional 5 days before the cells were analyzed for IL17F-RFP and FOXP3-GFP expression by high-throughput fluorescence-activated cell sorting (FACS) (FIG. 5a). […] This effect of reprogrammed differentiation was further confirmed by intracellular immunostaining of IL-17 and FOXP3 (FIG. 1a).

For test [2], the system named is differentiating iTreg cells. The experiment in a line: iTreg differentiation of CD4 naïve T cells (FOXP3-GFP reporter or intracellular staining of FOXP3). The conditions noted are these: AOA added after 24 hours, analyzed at end of differentiation. The method, then: as §1, with “On day 6, the cells were analyzed for IL17F-RFP and FOXP3-GFP or the cells were collected and restimulated for 4-6 hours with PMA, inomycin, and Golgi-stop for intracellular staining in absence of indicated compounds.” left out

The subject of test [3] is differentiating TH17 cells. Description: Intracellular metabolite profiling by LC/MS in differentiating TH17 cells. The method, then: CD4 naïve T cells, differentiating TH17 cells (day 2.5), and differentiating iTreg cells (day 2.5) were obtained as described above. A solution of 80/20 methanol (MeOH)/H2O was used to extract intracellular metabolites. The extracted samples were analyzed with liquid chromatography (LC)/mass spectrometry (MS) metabolomics. 200 ng/mL of extraction standard (L-Glutamic acid-^13C5-^15N-d5) was added into samples, and the peak value for each metabolite was normalized to extraction standard. The data was transformed into Log 2 and clustered. Cell extracts obtained as described above were analyzed for relative abundance of ^13C and ^15N metabolites by liquid chromatography-triple quadrupole mass spectrometry (LC-MS) using scheduled selective reaction monitoring (SRM) for each metabolite of interest, with the detector set to negative mode. Quantitation of intracellular 2-hydroxyglutarate (2HG) was conducted as described previously (Kernesky et al., Blood 2015, 125(2) 296-303).

Test [4] has as its system differentiating iTreg cells. Description: U-13C glutamine flux analysis in differentiating iTreg cells. The note with it: 2 mM U-13C-glutamine for 4 hours. Here is the method: CD4 naïve T cells, differentiating TH17 or iTreg cells (68 hours) were incubated with fresh media prior to labeling. The cells were then cultured for 4 hours at 37° C. with medium where the glutamine was replaced with the corresponding stable isotope label: 2 mM U-^13C glutamine or 2 mM ^15N-α-glutamine for 4 hours at 37° C. The cells were quickly collected and quickly washed with phosphate buffer saline (PBS), pelleted, and snap frozen in liquid nitrogen. The frozen samples were kept in −80° C. until extraction. Cell extracts were prepared by first adding 80/20 MeOH/H2O at −60° C. to the frozen pellets and collecting the supernatant after centrifugation at 4° C. The extracted samples were analyzed by high-resolution liquid-chromatography-mass spectrometry. Unlabeled glutamine-fed cells were used as background. For negative mode metabolomics: Cell extracts obtained as described above were analyzed for relative abundance of metabolites by liquid chromatography-triple quadrupole mass spectrometry (LC-MS) using scheduled selective reaction monitoring (SRM) for each metabolite of interest, with the detector set to negative mode. Prior to injection, dried extracts were reconstituted in LC-MS grade water. LC separation was achieved by reverse-phase ion-pairing chromatography.

The subject of test [5] is FOXP3 promoter and its intronic CpG island. Description: Methylation analysis by bisulfite sequencing, T cells under TH17 condition. The note with it: 0.5 mM dimethyl R-2-HG (day 4) or AOA (day 6), male mice. The method, then: The method is essentially the same as described previously (Kim, et al. J Exp Med 204 (7), 1543-1551 (2007)). Briefly, genomic DNA was purified with Blood & Cell Culture DNA Midi Kit (Qiagen). Bisufite conversion of genomic DNA was performed using Epitect® bisulfite kit (Qiagen), according to the manufacture's instruction. The PCR product was run on 2% agarose, purified and cloned using TOPO® TA Cloning® Kit with PCR®4. Clones are picked for Sanger sequencing.

The mark [6] stands for this setting: differentiating TH17 cells, day 2.5, 0.5 mM AOA.

In the case of `NOCC(=O)O` [AOA, (aminooxy)-acetic acid], the “reprogramming of TH17 induction to iTreg cells (IL17F-expressing and FOXP3-expressing cells)” value in test [1] is “reprogram TH17 induction to iTreg cells in a dose-dependent manner”. In addition, in test [2], the “iTreg cell induction under iTreg differentiation conditions” value is “dose-dependently promote iTreg cell induction”. In test [3] (setting [6]), the “abundance of TCA cycle intermediates (α-KG, succinate, fumarate, malate, citrate)” value was “reduced partially”; the level of glutamate result is recorded as “slightly higher”; the “reduction of steady-state levels of 2-HG” value was 75%. In addition, the “level of glutathione, oxidized glutathione, or L-asparate” value in test [3] (re-plotted from FIG. 2a: differentiating TH17 or iTreg cells (day 2.5), absence or presence of AOA) was “does not affect”. Also, in test [4], the “de novo synthesis of α-KG and 2-HG (U-13C labeled, normalized to U-13C-glutamine)” value is reported as “inhibited”. For the same compound, the “methylation level of FOXP3 promoter and its intronic CpG island” value in test [5] is reported as “dramatically decreased the methylation levels”.

These data come from patent publication US11241455B2, “Methods of treating disease by metabolic control of T-cell differentiation” (The J. David Gladstone Institutes, a testamentary trust …, priority 2016, dated 2022).
